# According to the supplement of paper PMC10331698:
# ± gives the standard deviation of the averaged measurements.
# Assays:
# Experiment in all cases: level (log10 ratio to DMSO vehicle control); higher = higher biomarker level / cell amount than vehicle control
# [1] = compound: O=C(O)C(F)(OC(F)(F)C(F)(OC(F)(F)C(F)(OC(F)(F)C(F)(F)C(F)(F)F)C(F)(F)F)C(F)(F)F)C(F)(F)F [Perfluoro-(2,5,8-trimethyl-3,6,9-trioxadodecanoic)acid] (in DMSO)
# Protocol: (§1)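 BioMAP Diversity Plus panel of 12 human primary cell co-culture systems (3C, 4H, LPS, SAg, BT, BF4T, BE3C, CASM3C, HDF3CGF, KF3CT, MyoF, Mphg). Compounds were added 1 h before stimulation and left for 24 h (MyoF 48 h; BT 72 h for soluble read-outs or 6 d for IgG). Biomarkers were read by ELISA, cytotoxicity by SRB, PBMC viability and proliferation by Alamar Blue. Each well value was divided by the mean of 8 DMSO control wells on the same plate and log10 transformed; duplicate blinded samples were tested at 4 concentrations.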
# [2] = compound: O=C(O)C(F)(F)OC(F)(F)C(F)(F)OC(F)(F)C(F)(F)OC(F)(F)C(F)(F)C(F)(F)C(F)(F)F [Perfluoro-3,6,9-trioxatridecanoic acid] (in DMSO); details: 6700 nM
# Protocol: as §1
# [3] = compound: C[C@@H]1C[C@H]2[C@@H]3CCC4=CC(=O)C=C[C@]4(C)[C@@]3(F)[C@@H](O)C[C@]2(C)[C@@]1(O)C(=O)COP(=O)(O)O [Dexamethasone sodium phosphate] (in DMSO)
# Protocol: as §1
# [4] = compound: OCCC(F)(F)C(F)(F)C(F)(F)C(F)(F)F [4:2 Fluorotelomer alcohol] (in DMSO)
# Protocol: as §1
# [5] = compound: CN(C(=O)C(F)(F)C(F)(F)C(F)(F)F)[Si](C)(C)C [N-Methyl-N-trimethylsilylheptafluorobutyramide] (in DMSO)
# Protocol: as §1
# [6] = compound: CO[Si](C)(CCC(F)(F)C(F)(F)C(F)(F)C(F)(F)C(F)(F)C(F)(F)F)OC [Dimethoxymethyl((perfluorohexyl)ethyl)silane] (in DMSO)
# Protocol: as §1
# [7] = compound: O=C(O)C=C(C(F)(F)F)C(F)(F)F [3,3-Bis(trifluoromethyl)-2-propenoic acid] (in DMSO)
# Protocol: as §1
# Perfluoroundecanoic acid = compound: O=C(O)C(F)(F)C(F)(F)C(F)(F)C(F)(F)C(F)(F)C(F)(F)C(F)(F)C(F)(F)C(F)(F)C(F)(F)F [Perfluoroundecanoic acid] (in DMSO); details: 6700 nM
# Protocol: as §1
Test System,level (log10) ([1]; 1100 nM),level (log10) ([1]; 3300 nM),level (log10) ([1]; 10000 nM),level (log10) [2],level (log10) ([3]; 1500 nM),level (log10) ([3]; 4400 nM),level (log10) ([3]; 13000 nM),level (log10) ([3]; 40000 nM),level (log10) ([4]; 6700 nM),level (log10) ([4]; 20000 nM),level (log10) ([4]; 60000 nM),level (log10) ([5]; 6700 nM),level (log10) ([5]; 20000 nM),level (log10) ([5]; 60000 nM),level (log10) ([6]; 6700 nM),level (log10) ([6]; 20000 nM),level (log10) ([7]; 6700 nM),level (log10) ([7]; 20000 nM),level (log10) ([7]; 60000 nM),level (log10) (Perfluoroundecanoic acid)
CASM3C:Serum Amyloid A,-0.005 ± 0.014,0.0105 ± 0.036,0.04 ± 0.03,-0.0305 ± 0.013,0.489 ± 0.034,0.473 ± 0.015,0.4675 ± 0.0021,0.469 ± 0.022,-0.081 ± 0.081,-0.0345 ± 0.023,-0.013 ± 0.1,-0.018 ± 0.0099,-0.0275 ± 0.025,0.013 ± 0.082,-0.015 ± 0.0014,0.014 ± 0.041,-0.013 ± 0.021,-0.0185 ± 0.0092,-0.005 ± 0.038,0.014 ± 0.016
HDF3CGF:CCL2/MCP-1,-0.0035 ± 0.016,-0.0365 ± 0.005,-0.01 ± 0.0042,-0.274 ± 0.013,-0.015 ± 0.035,-0.0405 ± 0.023,-0.038 ± 0.0099,-0.044 ± 0.0085,-0.0305 ± 0.08,-0.043 ± 0.027,-0.0315 ± 0.052,-0.032 ± 0.0085,-0.0245 ± 0.0078,-0.0205 ± 0.028,-0.026 ± 0.034,-0.008 ± 0.054,-0.0775 ± 0.052,-0.0935 ± 0.056,-0.084 ± 0.028,-0.077 ± 0.042
HDF3CGF:CD54/ICAM-1,-0.001 ± 0.0057,-0.0015 ± 0.012,0.011 ± 0.031,-0.076 ± 0.016,0.004 ± 0.0057,0.029 ± 0.042,0.01 ± 0.038,0.026 ± 0.013,-0.0095 ± 0.019,-0.0255 ± 0.0035,-0.0285 ± 0.005,-0.009 ± 0.013,-0.0085 ± 0.018,0.011 ± 0.023,-0.013 ± 0.0099,-0.0125 ± 0.012,0.033 ± 0.035,0.032 ± 0.027,0.0555 ± 0.021,-0.0765 ± 0.00071
HDF3CGF:CD106/VCAM-1,0.001 ± 0.017,-0.03 ± 0.021,-0.0385 ± 0.07,-0.479 ± 0.037,-0.006 ± 0.057,-0.0145 ± 0.035,-0.054 ± 0.045,-0.121 ± 0.073,-0.023 ± 0.014,0.014 ± 0.035,-0.062 ± 0.057,-0.0155 ± 0.0092,-0.0165 ± 0.0021,-0.024 ± 0.0028,-0.0175 ± 0.00071,0.001 ± 0.0085,-0.0485 ± 0.021,-0.0795 ± 0.005,-0.17 ± 0.013,-0.213 ± 0.044
HDF3CGF:CXCL8/IL-8,0.0005 ± 0.00071,0 ± 0.0071,0.004 ± 0.0014,0.003 ± 0.0042,-0.039 ± 0.014,-0.0725 ± 0.005,-0.0645 ± 0.018,-0.0515 ± 0.039,-0.007 ± 0.0028,-0.0105 ± 0.0064,-0.002 ± 0.011,-0.0015 ± 0.0092,-0.003 ± 0.0057,0.0075 ± 0.0078,-0.0055 ± 0.0035,0.01 ± 0.0028,0.008 ± 0.0014,-0.001,0.022 ± 0.011,0.013 ± 0.0028
HDF3CGF:CXCL9/MIG,-0.0165 ± 0.005,0.005 ± 0.0057,-0.023 ± 0.02,-0.196 ± 0.0035,0.042 ± 0.037,0.067 ± 0.018,0.0555 ± 0.029,0.0435 ± 0.042,-0.0335 ± 0.037,-0.0065 ± 0.0064,0.01 ± 0.04,-0.0105 ± 0.0035,-0.004 ± 0.0057,-0.009 ± 0.018,-0.0005 ± 0.005,-0.005 ± 0.035,-0.006 ± 0.0028,-0.0075 ± 0.013,-0.0175 ± 0.015,-0.0645 ± 0.005
